{
  "source": "patent US5122520A",
  "about": "“Acid addition salts of amidated taurine or glycine, their preparation and use” (Sandoz Ltd., priority 1988, dated 1992)",
  "assay": "Bioavailability of salmon calcitonin after nasal application (plasma concentration by radio-immuno-assay)",
  "set-up": "species or system rhesus monkeys",
  "settings": "rhesus monkey, in vivo",
  "method": "The drug compound concentration was measured in the plasma by radio-immuno-assay. The salmon calcitonin determinations were carried out up to 6 hours after application.",
  "data": [
    {"substance": "salmon calcitonin", "values": [
      {"measurement": "bioavailability as % of the value measured with the best known resorption promoter", "result": 67, "unit": "%"},
      {"measurement": "bioavailability as % of the values found after application without resorption promoter", "result": "> 400", "unit": "%"}
    ]}
  ]
}
